Test results reported in US11331369B2, “Endoparasitic depsipeptides” (Zoetis Services LLC, priority 2017, dated 2022).

Legend:
[1] = system: microfilariae of Dirofilaria immitis; experiment: Dirofilaria immitis, Microfilaria (DiMF) In vitro Assay; format: cell-based; conditions: 72 h, read-out: DiMF Minimum Effective Dose (MED), approximately 72 hours incubation, microfilariae assessed for survival or paralysis
[2] = system: 4th stage larvae (L4) of Dirofilaria immitis; experiment: Dirofilaria immitis, L4 Stage (DiL4) In Vitro Assay; format: cell-based; conditions: Dirofilaria immitis, 72 h, read-out: DiL4 Minimum Effective Dose (MED), approximately 72 hours incubation; L4 larvae assessed for survival or paralysis

Compound | minimal effective concentration [1] [µM] | minimal effective concentration [2] [µM]
CC(C)C[C@H]1C(=O)O[C@H](Cc2ccc(Cn3nc(C#N)cc3C#N)cc2)C(=O)N(C)[C@@H](CC(C)C)C(=O)O[C@H](C)C(=O)N(C)[C@@H](CC(C)C)C(=O)O[C@H](Cc2ccc(Cn3cc(Br)c(C#N)n3)cc2)C(=O)N(C)[C@@H](CC(C)C)C(=O)O[C@H](C)C(=O)N1C [Example 1a-1, 1-(4-(((2R,5S,8R,11S,14R,17S,20R,23S)-14-(4-((4-bromo-3-cyano-1H-pyrazol-1-yl)methyl)benzyl)-5,11,17,23-tetraisobutyl-4,8,10,16,20,22-hexamethyl-3,6,9,12,15,18,21,24-octaoxo-1,7,13,19-tetraoxa-4,10,16,22-tetraazacyclotetracosan-2-yl)methyl)benzyl)-1H-pyrazole-3,5-dicarbonitrile] | 0.001 to 0.01 | 0.0001 to 0.001
CC(C)C[C@H]1C(=O)O[C@H](Cc2ccc(Cn3nc(C(F)F)cc3C3CC3)cc2)C(=O)N(C)[C@@H](CC(C)C)C(=O)O[C@H](C)C(=O)N(C)[C@@H](CC(C)C)C(=O)O[C@H](Cc2ccc(Cn3nc(C#N)cc3C#N)cc2)C(=O)N(C)[C@@H](CC(C)C)C(=O)O[C@H](C)C(=O)N1C [Example 1a-7, 1-(4-(((2R,5S,8R,11 S,14R,17S,20R,23S)-14-(4-((5-cyclopropyl-3-(difluoromethyl)-1H-pyrazol-1-yl)methyl)benzyl)-5,11,17,23-tetraisobutyl-4,8,10,16,20,22-hexamethyl-3,6,9,12,15,18,21,24-octaoxo-1,7,13,19-tetraoxa-4,10,16,22-tetraazacyclotetracosan-2-yl)methyl)benzyl)-1H-pyrazole-3,5-dicarbonitrile] | 0.001 to 0.01 | ≤ 0.0001
CC(C)C[C@H]1C(=O)O[C@H](Cc2ccc(Cn3nccc3-c3ccccc3)cc2)C(=O)N(C)[C@@H](CC(C)C)C(=O)O[C@H](C)C(=O)N(C)[C@@H](CC(C)C)C(=O)O[C@H](Cc2ccc(Cn3nc(C#N)cc3C#N)cc2)C(=O)N(C)[C@@H](CC(C)C)C(=O)O[C@H](C)C(=O)N1C [Example 1a-12, 1-(4-(((2R,5S,8R,11S,14R,17S,20R,23S)-5,11,17,23-tetraisobutyl-4,8,10,16,20,22-hexamethyl-3,6,9,12,15,18,21,24-octaoxo-14-(4-((5-phenyl-1H-pyrazol-1-yl)methyl)benzyl)-1,7,13,19-tetraoxa-4,10,16,22-tetraazacyclotetracosan-2-yl)methyl)benzyl)-1H-pyrazole-3,5-dicarbonitrile] | 0.01 to 0.1 | 0.0001 to 0.001
CCOc1cn(Cc2ccc(C[C@H]3OC(=O)[C@H](CC(C)C)N(C)C(=O)[C@@H](C)OC(=O)[C@H](CC(C)C)N(C)C(=O)[C@@H](Cc4ccc(Cn5ncc(OCC)c5C)cc4)OC(=O)[C@H](CC(C)C)N(C)C(=O)[C@@H](C)OC(=O)[C@H](CC(C)C)N(C)C3=O)cc2)nc1C [Example 1a-38, (3S,6R,9S,12R,15S,18R,21S,24R)-6-[[4-[(4-ethoxy-3-methyl-pyrazol-1-yl)methyl]phenyl]methyl]-18-[[4-[(4-ethoxy-5-methyl-pyrazol-1-yl)methyl]phenyl]methyl]-3,9,15,21-tetraisobutyl-4,10,12,16,22,24-hexamethyl-1,7,13,19-tetraoxa-4,10,16,22-tetrazacyclotetracosane-2,5,8,11,14,17,20,23-octaone] | 0.001 to 0.01 | 0.001 to 0.01
Cc1nn(Cc2ccc(C[C@H]3OC(=O)[C@H](CC(C)C)N(C)C(=O)[C@@H](C)OC(=O)[C@H](CC(C)C)N(C)C(=O)[C@@H](Cc4ccc(Cn5ncc(OC(C)C)c5C)cc4)OC(=O)[C@H](CC(C)C)N(C)C(=O)[C@@H](C)OC(=O)[C@H](CC(C)C)N(C)C3=O)cc2)cc1OC(C)C [Example 1a-39, (3S,6R,9S,12R,15S,18R,21S,24R)-3,9,15,21-tetraisobutyl-6-[[4-[(4-isopropoxy-3-methyl-pyrazol-1-yl)methyl]phenyl]methyl]-18-[[4-[(4-isopropoxy-5-methyl-pyrazol-1-yl)methyl]phenyl]methyl]-4,10,12,16,22,24-hexamethyl-1,7,13,19-tetraoxa-4,10,16,22-tetrazacyclotetracosane-2,5,8,11,14,17,20,23-octaone] | 0.01 to 0.1 | 0.001 to 0.01
CC(C)C#Cc1cnn(Cc2ccc(C[C@H]3OC(=O)[C@H](CC(C)C)N(C)C(=O)[C@@H](C)OC(=O)[C@H](CC(C)C)N(C)C(=O)[C@@H](Cc4ccc(Cn5cc(C#CC(C)C)cn5)cc4)OC(=O)[C@H](CC(C)C)N(C)C(=O)[C@@H](C)OC(=O)[C@H](CC(C)C)N(C)C3=O)cc2)c1 [Example 1b-112, (3S,6R,9S,12R,15S,18R,21S,24R)-3,9,15,21-tetraisobutyl-4,6,10,16,18,22-hexamethyl-12,24-bis(4-((4-(3-methylbut-1-yn-1-yl)-1H-pyrazol-1-yl)methyl)benzyl)-1,7,13,19-tetraoxa-4,10,16,22-tetraazacyclotetracosan-2,5,8,11,14,17,20,23-octaone] | 0.01 to 0.1 | 0.0001 to 0.001
CC(C)C[C@H]1C(=O)O[C@H](Cc2ccc(Cn3cc(C#CC4CC4)cn3)cc2)C(=O)N(C)[C@@H](CC(C)C)C(=O)O[C@H](C)C(=O)N(C)[C@@H](CC(C)C)C(=O)O[C@H](Cc2ccc(Cn3cc(C#CC4CC4)cn3)cc2)C(=O)N(C)[C@@H](CC(C)C)C(=O)O[C@H](C)C(=O)N1C [Example 1b-113, (3S,6R,9S,12R,15S,18R,21S,24R)-6,18-bis(4-((4-(cyclopropylethynyl)-1H-pyrazol-1-yl)methyl)benzyl)-3,9,15,21-tetraisobutyl-4, 10,12,16,22,24-hexamethyl-1,7,13,19-tetraoxa-4,10,16,22-tetraazacyclotetracosan-2,5,8,11,14,17,20,23-octaone] | 0.01 to 0.1 | 0.0001 to 0.001
CC(C)C[C@H]1C(=O)O[C@H](Cc2ccc(Cn3nccc3-c3ccccc3)cc2)C(=O)N(C)[C@@H](CC(C)C)C(=O)O[C@H](C)C(=O)N(C)[C@@H](CC(C)C)C(=O)O[C@H](Cc2ccc(Cn3nccc3-c3ccccc3)cc2)C(=O)N(C)[C@@H](CC(C)C)C(=O)O[C@H](C)C(=O)N1C [Example 1b-128, (3S,6R,9S,12R,15S,18R,21S,24R)-3,9,15,21-tetraisobutyl-4,6,10,16,18,22-hexamethyl-12,24-bis(4-((5-phenyl-1H-pyrazol-1-yl)methyl)benzyl)-1,7,13,19-tetraoxa-4,10,16,22-tetraazacyclotetracosan-2,5,8,11,14,17,20,23-octaone] | 0.01 to 0.1 | 0.001 to 0.01
COc1ccc(-c2ccnn2Cc2ccc(C[C@H]3OC(=O)[C@H](CC(C)C)N(C)C(=O)[C@@H](C)OC(=O)[C@H](CC(C)C)N(C)C(=O)[C@@H](Cc4ccc(Cn5nccc5-c5ccc(OC)cc5)cc4)OC(=O)[C@H](CC(C)C)N(C)C(=O)[C@@H](C)OC(=O)[C@H](CC(C)C)N(C)C3=O)cc2)cc1 [Example 1b-149, (3S,6R,9S,12R,15S,18R,21S,24R)-3,9,15,21-tetraisobutyl-6,18-bis(4-((5-(4-methoxyphenyl)-1H-pyrazol-1-yl)methyl)benzyl)-4,10,12,16,22,24-hexamethyl-1,7,13,19-tetraoxa-4,10,16,22-tetraazacyclotetracosan-2,5,8,11,14,17,20,23-octaone] | 0.01 to 0.1 | 0.001 to 0.01
CC(C)C[C@H]1C(=O)O[C@H](Cc2ccc(Cn3cc(OCC(F)(F)F)cn3)cc2)C(=O)N(C)[C@@H](CC(C)C)C(=O)O[C@H](C)C(=O)N(C)[C@@H](CC(C)C)C(=O)O[C@H](Cc2ccc(Cn3cc(OCC(F)(F)F)cn3)cc2)C(=O)N(C)[C@@H](CC(C)C)C(=O)O[C@H](C)C(=O)N1C [Example 1b-150, (3S,6R,9S,12R,15S,18R,21S,24R)-3,9,15,21-tetraisobutyl-4,6,10,16,18,22-hexamethyl-12,24-bis(4-((4-(2,2,2-trifluoroethoxy)-1H-pyrazol-1-yl)methyl)benzyl)-1,7,13,19-tetraoxa-4,10,16,22-tetraazacyclotetracosan-2,5,8,11,14,17,20,23-octaone] | 0.001 to 0.01 | 0.0001 to 0.001
Cc1cnn(Cc2ccc(C[C@H]3OC(=O)[C@H](CC(C)C)N(C)C(=O)[C@@H](C)OC(=O)[C@H](CC(C)C)N(C)C(=O)[C@@H](Cc4ccc(Cn5ncc(C)c5C)cc4)OC(=O)[C@H](CC(C)C)N(C)C(=O)[C@@H](C)OC(=O)[C@H](CC(C)C)N(C)C3=O)cc2)c1C [Example 1b-152, (3S,6R,9S,12R,15S,18R,21S,24R)-6,18-bis(4-((4,5-dimethyl-1H-pyrazol-1-yl)methyl)benzyl)-3,9,15,21-tetraisobutyl-4,10,12,16,22,24-hexamethyl-1,7,13,19-tetraoxa-4,10,16,22-tetraazacyclotetracosan-2,5,8,11,14,17,20,23-octaone] | 0.001 to 0.01 | 0.001 to 0.01
CC(C)C[C@H]1C(=O)O[C@H](Cc2ccc(Cn3ccnc3C(F)(F)F)cc2)C(=O)N(C)[C@@H](CC(C)C)C(=O)O[C@H](C)C(=O)N(C)[C@@H](CC(C)C)C(=O)O[C@H](Cc2ccc(Cn3ccnc3C(F)(F)F)cc2)C(=O)N(C)[C@@H](CC(C)C)C(=O)O[C@H](C)C(=O)N1C [Example 6-15, (3S,6R,9S,12R,15S,18R,21S,24R)-3,9,15,21-tetraisobutyl-4,6,10,16,18,22-hexamethyl-12,24-bis(4-((2-(trifluoromethyl)-1H-imidazol-1-yl)methyl)benzyl)-1,7,13,19-tetraoxa-4,10,16,22-tetraazacyclotetracosan-2,5,8,11,14,17,20,23-octaone] |  | 0.0001 to 0.001
CC(C)C[C@H]1C(=O)O[C@H](Cc2ccc(CN3CCOc4ccncc43)cc2)C(=O)N(C)[C@@H](CC(C)C)C(=O)O[C@H](C)C(=O)N(C)[C@@H](CC(C)C)C(=O)O[C@H](Cc2ccc(CN3CCOc4ccncc43)cc2)C(=O)N(C)[C@@H](CC(C)C)C(=O)O[C@H](C)C(=O)N1C [Example 9-63, (3S,6R,9S,12R,15S,18R,21S,24R)-6,18-bis[[4-(2,3-dihydropyrido[4,3-b][1,4]oxazin-4-ylmethyl)phenyl]methyl]-3,9,15,21-tetraisobutyl-4,10,12,16,22,24-hexamethyl-1,7,13,19-tetraoxa-4,10,16,22-tetrazacyclotetracosane-2,5,8,11,14,17,20,23-octaone] |  | 0.001 to 0.01
